Data set [1] concerns photoreceptors. The conditions noted are these: rat, in vivo, iv; for Incidences (#affected/total): male, Sprague-Dawley, 2 days.
Data set [2] in a line: in vivo. The conditions noted are these: male, Sprague-Dawley, rat, iv; for Kp at 0.5 h / Kp at 6 h: in vivo.
The test system of data set [3] is HER2 in BT-474 cells. Nature of the data set: HER2 degradation assay (anti-HER2 FITC flow cytometry). Format: cell-based. The settings on record: 24 h treatment. As to the method: HER2 positive cells were determined using anti-HER2 conjugated FITC (BD, 540553) according to manufacturer's instruction (BD Biosciences). 0.2×10^6 BT-474 cells were plated in 12-well culture plates in Dulbecco's Modified Eagle's Medium containing 10% fetal bovine serum and 1.5 g/L sodium bicarbonate. Cells were treated with the indicated compounds over a 10-1000 nM concentration range for 24 h. Cells were collected and stained with a FITC-conjugated anti-HER2 antibody for 30 min at room temperature. HER2-positive cells (fluorescence intensity) were determined by flow cytometry (excitation at 495 nm and emission at 529 nm) using a Becton Dickinson LSRII equipped with CellQuest Pro software. […]
In general terms: In flow cytometry, cells or beads pass a laser one at a time.

The conditions of data set [4]: for Elimination from the retina (in words) / Retina/plasma (R/P) ratio (in words): rats; for Retina/plasma (R/P) ratio (in words): 6 h post-dose.
Data set [5] in a line: in vivo. The settings on record: male, Sprague-Dawley, rat, iv.
For data set [6], the system named is photoreceptors. Nature of the data set: Photoreceptor degeneration/apoptosis in rat eyes (H&E, TUNEL) after i.v. dosing. The conditions noted are these: for Photoreceptor degeneration (in words) / Ocular toxicity / photoreceptor injury in rats (in words): rats; for Ocular toxicity / photoreceptor injury in rats (in words): short-term studies.
For data set [7] the following is noted: phase I trials, clinical reports, cited from earlier work.
Data set [8] relates to retina. The conditions noted are these: repeated doses; cited from earlier work.
Setting [9] is: SD rats, all testing doses of the compound, i.v.
Setting [10] is: male, Sprague-Dawley, rat, in vivo, iv, 2 days.
Where [11] appears, read: male, Sprague-Dawley, rat, in vivo, iv.
Setting [12] is: male, Sprague-Dawley, rat, in vivo, iv, 0.5 h.
Where [13] appears, read: male, Sprague-Dawley, rat, in vivo, iv, 6 h.
Where [14] appears, read: SD rats, i.v., between 0.5 and 6 h post-dose.
Where [15] appears, read: SD rats, i.v., Day 2, 0.5 h, mg/kg: AUY922 10, 17-DMAG 20, Compound 1 50, 17-AAG 80.
Setting [16] is: SD rats, i.v., Day 2, 6 h, mg/kg: AUY922 10, 17-DMAG 20, Compound 1 50, 17-AAG 80.
The mark [17] stands for this setting: SD rats, 8, 20, 60, 100/80 mg/kg/d x2, i.v.

Values joined by “and” are separate entries in the source; they are usually repeats but may differ in a detail not shown here. Equal values may be shown once. “Also recorded” adds a separate entry of the source. Read-outs that look alike come from different tables or passages of the source. Where only a bound is given, the exact number is not on record here.

The term IC50 denotes the concentration that gives 50% inhibition. Read a high IC50 as lower potency.

On to `CC(C)c1cc(C(=O)N2Cc3ccc(CN4CCN(C)CC4)cc3C2)c(O)cc1O` [AT-13387], for which, under setting [9], the “Mortality (in-house study)” value is on record as 0/9. For the same compound, under setting [10], the “Other findings (in-house study)” value is on record as “↓ Body weight gain”. Further, the “Incidences (#affected/total)” value in [1] (3 mg/kg/day) is 6/6; in [1] (30 mg/kg/day), 0/3; in data set [1] (60 mg/kg/day), 2/3.

As to `CCNC(=O)c1noc(-c2cc(C(C)C)c(O)cc2O)c1-c1ccc(CN2CCOCC2)cc1` [AUY-922], the “Toxicity: mortality” value (SD rats, 3-60 mg/kg i.v., in 2-3 days post-dose) was “No mortality”. Moreover, under setting [9], the “Mortality (in-house study)” value is listed as 0/12. Also, the “Other findings (in-house study)” value under setting [10] was “tail edema”. Besides, the “Other findings (in-house study)” value (rat, in vivo, iv) was “↓ Body weight gain)”. For the same compound, in data set [2], the Kp at 0.5 h stood at 4.24 and the Kp at 6 h was 165. In addition, the “Incidences (#affected/total)” value in data set [1] (3 mg/kg/day) is on record as 0/3. For the same compound, the “Incidences (#affected/total)” value in data set [1] (60 mg/kg/day) is reported as 3/3. Besides, in data set [1], the “Ocular toxicity / photoreceptor injury in rats (in words)” value (“Ocular toxicity / photoreceptor injury” below) is listed as “most severe ocular effects” and the TUNEL result was “+-++”. This compound also displayed an IC50 in data set [3] of less than 30 nM. In data set [3] (Homo sapiens, BT-474, 24 h), this compound returned an IC50 of 30 nM. For the same compound, in [4] (setting [11]), the “Retina % remain at 6 h of drug present at 0.5 h” value is on record as “(53.5) %” and the “Retina %↓ 0.5-6 h (drug eliminated from retina)” value (“Retina %↓ 0.5-6 h” below) is 46.5%. Moreover, in [4] (setting [12]), the Plasma concentration is 1120 nM and the Retina concentration was found to be 4.75 µM. For the same compound, in data set [4] (setting [13]), the Plasma concentration came to 15.4 nM and the Retina concentration is 2.54 µM.

Consider `CC(C)c1cc(-c2nnc(S)n2-c2ccc3c(ccn3C)c2)c(O)cc1O` [Compound 1, 4-isopropyl-6-(5-mercapto-4-(1-methyl-1H-indol-5-yl)-4H-1,2,4-triazol-3-yl)benzene-1,3-diol], for which the “Mortality (in-house study)” value under setting [10] was 0/15. The “Other findings (in-house study)” value (rat, in vivo, 100 mg/kg) is recorded as “(ECG change”. Also, the concentration at 0.5 h is 19.4 nM in data set [2] (cerebrospinal fluid), 19500 nM in data set [2] (plasma) and 10400 nM in [2] (retina). The concentration at 6 h in [2] (plasma) was 104 nM; in data set [2] (retina) it was 2240 nM. In [3] (Homo sapiens, BT-474, 24 h), the concentration for half-maximal inhibition (IC50) was 60 nM. The “Retina %↓ 0.5-6 h” value in [4] (setting [14]) was determined as 78.5%; in [4] (SD rats, i.v., between 0.5 and 6 h post-dose, listed as compound 1) it was 79%. Besides, the MTD in data set [5] was determined as 100 mg/kg. Also, the “Incidences (#affected/total)” value is given as 0/3 in [6] (SD rats, 10 mg/kg/d x2, i.v.); 0/3 in data set [6] (SD rats, 20 mg/kg/d x2, i.v.); 0/3 in data set [6] (SD rats, 30 mg/kg/d x2, i.v.); 3/3 in data set [6] (SD rats, 50 mg/kg/d x2, i.v.); 3/3 in data set [6] (SD rats, 100 mg/kg/d x2, i.v.). For the same compound, the “Severity (TUNEL + area & density)” value in [6] (SD rats, 10 mg/kg/d x2, i.v.) is “(−) ((−) ≦ 20 cells/section)”; in data set [6] (SD rats, 20 mg/kg/d x2, i.v.), “(−) ((−) ≦ 20 cells/section)”; in data set [6] (SD rats, 30 mg/kg/d x2, i.v.) it was “(−) (1/3±, 22 ((−) ≦ 20 cells/section)”; in [6] (SD rats, 50 mg/kg/d x2, i.v.) it was “(±) ((±) 21-30 cells/section)”. Besides, the Photoreceptor degeneration/apoptosis result in [6] (SD rats, 50 mg/kg i.v.) is “(±)”; in data set [6] (SD rats, 10, 20, 30 mg/kg i.v.), “(−) ((−) ≦20 cells/section)”. Besides, the “Photoreceptor degeneration (in words)” value in [6] (doses active in animal tumor models) is listed as “Photoreceptor degeneration was not observed”; in data set [6] (higher dose(s)), “only minimal degeneration; also recorded: only minimal-mild changes”. The “Ocular toxicity / photoreceptor injury” value in data set [6] (i.v.) is given as “Mild or no ocular toxicity”.

On to `C=CCNC1=C2C[C@@H](C)C[C@H](OC)[C@H](O)[C@@H](C)/C=C(\C)[C@H](OC(N)=O)[C@@H](OC)/C=C\C=C(/C)C(=O)NC(=CC1=O)C2=O` [Compound 17-AAG], for which, for the setting “SD rats, 100 mg/kg in 5 min”, the “Mortality (in-house study)” value was 1/3; 100 mg/kg in 5 min,. Moreover, for the setting “SD rats, 120 mg/kg in 5 min”, the “Mortality (in-house study)” value is 1/1: 120 mg/kg in 5 min. Under “SD rats, i.v.”, the “Toxicity: Mortality (dose)” value came to 100 mg/kg. The “Visual adverse effects in clinical trials / clinical subjects” value in data set [7] is “absence of clinically-reported visual changes”. The IC50 in data set [3] was 100 to 150 nM. In data set [4] (setting [15]), the CSF concentration came out at 0.434 µM, the Plasma concentration was determined as 26500 nM, the “R/P ratio (retina/plasma)” value is listed as 1.70 and the Retina concentration amounted to 45.1 µM. In data set [4] (setting [16]), the CSF concentration was 0.00433 µM, the Plasma concentration was determined as 262 nM, the “R/P ratio (retina/plasma)” value stood at 9.58 and the Retina concentration stood at 2.51 µM. Further, in data set [4] (setting [14]), the “Retina % remain at 6 h of drug present at 0.5 h” value was “(5.6) %”; the “Retina %↓ 0.5-6 h” value is 94% and 94.4%. Further, in [4], the “Elimination from the retina (in words)” value is recorded as “more rapidly eliminated from the retina” and the “Retina/plasma (R/P) ratio (in words)” value is “lower R/P ratios; also recorded: low R/P ratio”. Besides, the Photoreceptor degeneration/apoptosis entry in data set [6] (SD rats, 8, 20, 60 mg/kg i.v.) is on record as “(−) ((−) ≦20 cells/section)”. Moreover, in data set [6] (setting [17]), the “Incidences (#affected/total)” value is on record as 0/10 and the “Severity (TUNEL + area & density)” value is “(−) ((−) ≦ 20 cells/section)”. Also, the Photoreceptor degeneration/apoptosis entry in data set [6] (SD rats, 80 (100) mg/kg i.v.) is listed as “(−) ((−) ≦20 cells/section)”. Also, the TUNEL entry in data set [6] (SD rats, i.v., mg/kg: AUY922 10, 17-DMAG 20, Compound 1 50, 17-AAG 80) is reported as “(−) ((−) ≦ 20 cells/section)”. Further, the “Ocular toxicity / photoreceptor injury” value in [6] (i.v.) was “Mild or no ocular toxicity; also recorded: absence of ocular effects; also recorded: did not produce detectable photoreceptor injury; also recorded: did not induce ocular toxicity in rats”.

As for `CO[C@H]1/C=C\C=C(/C)C(=O)NC2=CC(=O)C(NCCN(C)C)=C(C[C@@H](C)C[C@H](OC)[C@H](O)[C@@H](C)/C=C(\C)[C@@H]1OC(N)=O)C2=O` [Compound 17-DMAG], where the note is “SD rats, 25 mg/kg/d x3, 72 hrs”, the “Mortality (in-house study)” value is recorded as 3/3 @ 25. Further, where the note is “SD rats, i.v., x 3 days”, the “Toxicity: Mortality (dose)” value is 25 mg/kg/dx. Besides, in data set [2], the Kp at 0.5 h turned out to be 6.79 and the Kp at 6 h is 51.1. Also, the “Visual adverse effects in clinical trials / clinical subjects” value in data set [7] (listed as alvespimycin) is “Visual symptoms, including blurred vision”. The midpoint of inhibition in data set [3] (Homo sapiens), the IC50, lay at 60 nM. In [4] (setting [15]), the CSF concentration came to 0.0799 µM, the Plasma concentration was found to be 4710 nM and the Retina concentration is 32.0 µM. Also, in [4] (setting [16]), the CSF concentration stood at 0.00376 µM, the Plasma concentration worked out at 317 nM and the Retina concentration came to 16.2 µM. In addition, the “Retina %↓ 0.5-6 h” value in [4] (setting [14]) was 49.4%. Also, in data set [4], the “Elimination from the retina (in words)” value is “longer retention time; also recorded: slow elimination rate” and the “Retina/plasma (R/P) ratio (in words)” value is “high retina/plasma (R/P) ratio”. The “Incidences (#affected/total)” value in data set [6] (SD rats, 10 mg/kg/d x2, i.v.) is on record as 3/3. Further, in data set [6] (SD rats, 20, 25 mg/kg/d x2, i.v.), the “Incidences (#affected/total)” value is 6/6. For the same compound, the “Ocular toxicity / photoreceptor injury” value in [6] (i.v.) is “marked photoreceptor cell death; also recorded: produced ocular toxicity”.

Consider `CC1(C)CC(=O)c2c(C(F)(F)F)nn(-c3ccc(C(N)=O)c(N[C@H]4CC[C@H](OC(=O)CN)CC4)c3)c2C1` [PF-04929113], for which, in data set [8], the “Retinal injury in dogs” value is reported as “photoreceptor degeneration and/or cell death”.

The record behind these values is patent US8628752B2, “Methods of identifying HSP90 inhibitors with less ocular toxicity” (Synta Pharmaceuticals Corp., priority 2011, dated 2014).
